Key:
FLT3 D835H = target: T1, FLT3 D835H (Homo sapiens, UniProt P36888, D835H); test: KINOMEscan KdElect competitive binding assay, FLT3 D835H; settings: tosylate salt
T1 construct: host or cells: E. coli BL21-derived host (T7 phage) or HEK-293
T1 sequence (P36888 610-943 D835H limits assumed): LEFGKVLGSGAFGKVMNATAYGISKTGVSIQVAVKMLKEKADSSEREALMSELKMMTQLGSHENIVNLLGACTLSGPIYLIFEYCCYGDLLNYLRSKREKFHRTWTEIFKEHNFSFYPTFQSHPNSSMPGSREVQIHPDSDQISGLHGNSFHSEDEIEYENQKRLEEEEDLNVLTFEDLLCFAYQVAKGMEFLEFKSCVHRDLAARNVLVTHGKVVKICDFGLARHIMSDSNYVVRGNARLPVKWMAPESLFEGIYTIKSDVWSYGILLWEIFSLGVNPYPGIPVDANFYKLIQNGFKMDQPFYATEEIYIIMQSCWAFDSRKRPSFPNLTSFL
Description: Competitive binding assay.
The lysates were then centrifuged and filtered.

[1] = test system: Molm 13-RES-luc cells that expressed FLT3-ITD/D835Y; test: MTT assay in tandutinib-resistant Molm 13-RES-luc cells; type: cell-based; settings: Homo sapiens, tandutinib resistant Molm 13 cells, mean of 3 studies with 6 replicates each (n=18), read-out: IC50 pFLT3 (text: cell viability, MTT assay)
FLT3 TKD mutation D835Y = target: T2, FLT3 TKD mutation D835Y (Homo sapiens, UniProt P36888, D835Y); test: Direct enzyme phosphorylation assay (Millipore Kinase IC50 Profiler), FLT3 D835Y; type: biochemical; settings: tosylate salt; n=2; read-out: IC50 against the FLT3 TKD mutation D835Y
T2 construct: purchased Millipore
T2 sequence (P36888 27-993 D835Y): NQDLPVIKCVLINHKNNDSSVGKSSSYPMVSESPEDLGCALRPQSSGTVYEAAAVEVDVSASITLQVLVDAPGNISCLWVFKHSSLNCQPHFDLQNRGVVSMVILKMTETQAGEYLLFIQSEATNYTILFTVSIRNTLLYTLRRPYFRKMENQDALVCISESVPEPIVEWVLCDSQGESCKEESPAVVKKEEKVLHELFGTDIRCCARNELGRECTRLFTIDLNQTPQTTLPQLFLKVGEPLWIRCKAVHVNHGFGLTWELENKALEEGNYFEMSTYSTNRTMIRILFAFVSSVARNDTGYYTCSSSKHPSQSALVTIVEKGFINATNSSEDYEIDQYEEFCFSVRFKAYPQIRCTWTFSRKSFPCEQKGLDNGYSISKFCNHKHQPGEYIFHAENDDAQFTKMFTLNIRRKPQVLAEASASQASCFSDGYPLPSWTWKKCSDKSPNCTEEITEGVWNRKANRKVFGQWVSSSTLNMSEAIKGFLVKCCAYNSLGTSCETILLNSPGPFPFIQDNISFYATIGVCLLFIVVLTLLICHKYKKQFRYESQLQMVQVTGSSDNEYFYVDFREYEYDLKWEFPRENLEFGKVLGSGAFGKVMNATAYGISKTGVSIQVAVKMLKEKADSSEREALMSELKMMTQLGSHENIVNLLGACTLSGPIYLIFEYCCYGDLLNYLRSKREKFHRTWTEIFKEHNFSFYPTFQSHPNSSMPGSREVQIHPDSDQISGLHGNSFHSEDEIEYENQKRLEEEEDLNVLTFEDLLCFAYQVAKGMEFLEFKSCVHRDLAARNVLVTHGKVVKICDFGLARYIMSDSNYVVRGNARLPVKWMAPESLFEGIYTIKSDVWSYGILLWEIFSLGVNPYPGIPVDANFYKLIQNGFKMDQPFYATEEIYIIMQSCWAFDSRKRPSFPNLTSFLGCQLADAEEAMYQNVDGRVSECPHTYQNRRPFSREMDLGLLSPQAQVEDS
Method: Direct enzyme phosphorylation assay. The Millipore Kinase IC50 Profiler assay was used to screen the present invention against a panel of normal FLT3 and mutated FLT3 kinases. For assays of both kinases, the FLT3 enzyme was incubated with 8 mM of 3-(N-morpholino)propanesulfonic acid (MOPS) at a pH of 7.0, 0.2 mM Ethylenediaminetetraacetic acid (EDTA), 50 uM, a synthetic Abl peptide substrate […] (SEQ ID NO: 1), 10 mM MgAcetate and [γ-^33P-ATP]. The reaction was initiated by the addition of MgATp mix. The reaction mixture was incubated for 40 minutes at room temperature and halted by the addition of 3% phosphoric acid solution. 10 uL of the reaction solution was spotted on P30 filtermat and washed three times in 75 mM phosphoric acid for 5 minutes and then once in methanol prior to drying and scintillation counting. The scintillation values for each replicate, including positive and negative controls, were analyzed using XLFit version 5.1 to determine the IC50 values for the present invention against normal and mutated FLT3.

Kd (FLT3 D835H): 0.16 nM
IC50 [1]: 3.3 nM
IC50 (FLT3 TKD mutation D835Y): 3 nM
SMILES: COCCOc1ccc2c(c1)ncn2-c1ccc2cccc(N3CCC(N)CC3)c2n1 [CP-673,451]
